Legend:
[1] = set-up: method as in our prior study (number not given); conditions: acute inhalation exposure to a PCB mixture, estimated dose 40 μg/rat; ref our prior study (number not given); cited from earlier work
[2] = set-up: method as in previously reported (number not given); conditions: oral exposure to a PCB mixture; ref previously reported (number not given); cited from earlier work
[3] = Fractionation of parent PCB28 and metabolites in serum, liver, adipose and kidney (liquid scintillation counting); type: in vivo, Male Sprague–Dawley rats; conditions: for peak concentration of parent compound in serum: 12 min
Method: (§1) Animals in the HD group were intratracheally (i.t.) administered 42 μg of a one-time single dose of [^14C]-PCB28 in 200 μL of vehicle, while animals in the LD group received 4.2 μg of [^14C]-PCB28 in 100 μL of vehicle. The i.t. route for dosing was selected due to the limited availability and extraordinary cost of the radiolabeled PCB28, and to avoid ^14C contamination of the inhalation exposure apparatus. All i.t. instillation was performed under light anesthesia (4% isoflurane via a precision vaporizer Fortec, Cyprane, Keighley, UK). Rats recovered from the anesthesia within 2 min while held within a cylindrical glass chamber (2 L), equipped with drainage ports to facilitate urine collection and a metallic screen to segregate urine from feces (as illustrated in Figure S1). Air was drawn from the chamber at 6.0 L/min through a cartridge containing XAD-2 polymeric resin (Amberlite, Millipore Sigma, Burlington, MA) to capture any exhaled [^14C]-PCB28. For the longer time points (720 and 1440 min), individual rats were placed in metabolic cages following a similar protocol for excreta and exhaled breath collection. After exposure, the inner walls of the chamber were rinsed separately with water, acetone, and hexane (25 – 45 mL) and wiped to measure radioactivity. Rat fur was also wiped and analyzed for radioactivity. The rats exposed to the HD were euthanized using isoflurane and exsanguination via cardiac puncture at 12, 25, 50, 100, 200, 400, 720, and 1440 min postexposure (n = 1 per time point except n = 2 for 200 min). Animals exposed to the LD were similarly necropsied at time points of 2, 12, 50, 200, and 720 min postexposure (n = 2). Euthanasia was consistently performed during the light cycle, except in the case of the 720 min time point, wherein euthanasia occurred outside the light cycle.
Extractions of parent PCB28 and its hydroxylated, methyl sulfone, and conjugated metabolites in serum, liver, adipose, and kidney samples were conducted using our previous protocol. Individual extractable metabolites were separated using a series of liquid–liquid extractions, employing a graded array of solvents with increasing polarity to facilitate the partitioning of the analytes according to their inherent lipophilic characteristics (Figure S2). Subsequently, individual fractions were classified into respective categories, including the native PCB moiety, hydroxylated PCB (OH-PCB), methyl sulfonyl-PCB (MeSO2-PCB), conjugated metabolites, and unextractable components. Analytical recoveries were quantified for each extraction and separation step. Tissue samples (200–400 mg wet weight) were prepared for analysis in a two-step homogenization process using 2 mL of hexane/acetone solvent (50:50, vol/vol). The resultant solution was centrifuged, and then the pellet underwent two successive extractions with 1.5 mL of dichloromethane (DCM), chloroform/methanol (50:50 vol/vol), methanol/water (50:50 vol/vol), and water, respectively. […] The residual hydrophobic phase was quantified as native PCB28. The quantification of unlabeled PCB28, OH-PCBs (as MeO-PCB derivatives), and MeSO2–PCBs in standards spiked samples was performed on a gas chromatograph (Agilent 6890N) equipped with a ^63Ni μ-ECD detector and SLB-5MS capillary column (60 m × 0.25 mm I.D., 0.25 μm film thickness; Supelco, St Louis, MO). […]

[4] = Mass balance and whole-body tissue distribution of radioactivity after intratracheal [14C]-PCB28; type: in vivo, Male Sprague–Dawley rats; conditions: for contribution of adipose tissue to total radioactivity: 720 min; for share of the remaining radioactivity: 12 min
From the text: (§2) Male Sprague–Dawley rats (8 weeks old) weighing 230–285 g (mean of 256 g) were used in this study (Envigo, Indianapolis, IN). Male rats were selected to maintain consistency with previous toxicokinetic investigations of lower-chlorinated PCBs, specifically the study on intratracheally instilled ^14C-labeled dichlorinated PCB11, which also utilized male rats. This approach facilitated direct comparison across studies and contributed to a more comprehensive toxicokinetic data set for LC-PCBs following inhalation exposure. A PCB toxicokinetic study being published separately investigated placental transfer and fetal uptake in pregnant females. All animals were handled in compliance with an approved Institutional Animal Care and Use Committee protocol (protocol#: 3091097 approved on 10/12/2023). Rats were pair-housed in a light and temperature-controlled environment with access to food and water ad libitum. After 1 week of acclimatization, rats were assigned to either a high-dose (HD) group (n = 9) or a low-dose (LD) group (n = 5) at random. Control rats (n = 3) were exposed to a single dose of unlabeled PCB28 (42 μg in 200 μL) and necropsied 50 min after exposure to establish background levels for radioactivity calculations in blank tissues. […] Therefore, animal numbers were customized between groups to most efficiently utilize the limited available ^14C-PCB28 stock in our lab.
as §1
Serum and blood cells were separated. Two to six technical replicates were collected from 36 tissue types and digestive matter (diluted in ultrapure water) from 5 different GI tract locations. Muscle and adipose tissue samples were obtained from various locations. The collected tissue samples were placed in scintillation vials containing 1 mL of solvable cocktail and kept at 37 °C overnight for complete solubilization. To enable subsequent analyses, the solubilized tissue samples underwent a 2-h heating phase at 50 °C. For the bone, feces, and digestive matter, 1 mL of isopropyl alcohol was added. For samples displaying darker coloration, a controlled volume of 30% hydrogen peroxide (100 to 300 μL) was slowly added in increments to remove potential interference. […]

[5] = Toxicokinetic parameters by noncompartmental analysis after intratracheal administration of [14C]-PCB28; type: in vivo, Male Sprague–Dawley rats
From the text: as §2
as §1, with “Rats recovered from the anesthesia within 2 min while held within a cylindrical glass chamber (2 L), equipped with drainage ports to facilitate urine collection and a metallic screen to segregate urine from feces (as illustrated in Figure S1).” left out, “Animals exposed to the LD were similarly necropsied at time points of 2, 12, 50, 200, and 720 min postexposure (n = 2).” left out
Serum and blood cells were separated. Two to six technical replicates were collected from 36 tissue types and digestive matter (diluted in ultrapure water) from 5 different GI tract locations. Muscle and adipose tissue samples were obtained from various locations. The collected tissue samples were placed in scintillation vials containing 1 mL of solvable cocktail and kept at 37 °C overnight for complete solubilization. To enable subsequent analyses, the solubilized tissue samples underwent a 2-h heating phase at 50 °C. For the bone, feces, and digestive matter, 1 mL of isopropyl alcohol was added. For samples displaying darker coloration, a controlled volume of 30% hydrogen peroxide (100 to 300 μL) was slowly added in increments to remove potential interference.

SMILES: Clc1cccc(-c2cccc(Cl)c2)c1 [PCB11]
- serum elimination half-life [1]: 11.5 h

SMILES: Clc1ccc(-c2ccc(Cl)cc2Cl)cc1 [PCB28, 2,4,4′-trichlorobiphenyl]
- time of peak adipose concentration [2]: 24 h
- increase of parent PCB28 concentration over the entire study time course ([3]; adipose tissue, high dose): 9 fold
- increase of parent PCB28 concentration between 200 and 720 min ([3]; adipose tissue, low dose): 3 fold
- increase of parent PCB28 concentration over the entire study time course ([3]; adipose tissue, low dose): 36 fold
- peak concentration of parent compound in serum ([3]; high dose): 47 dpm/mg
- peak concentration of parent compound in serum ([3]; low dose): 7.6 dpm/mg
- contribution of adipose tissue to total radioactivity ([4]; high dose): 30%
- contribution of adipose tissue to total radioactivity ([4]; low dose): 28%
- share of the retained radioactivity sequestered in skin and adipose tissue ([4]; 24 h): 67–77%
- total radioactivity remaining within the body ([4]; 24 h): 88–92%
- administered dose excreted via urine and feces ([4]; 24 h study): less than 4%
- retention in the body or apparent bioavailability using fecal excretion ([4]; 24 h study): 92%
- increase of adipose [14C] concentration throughout the entire time course ([4]; high dose): 6.5 fold
- increase of adipose [14C] concentration throughout the entire time course ([4]; low dose): 21 fold
- reduction of quantified radioactivity between 12 and 50 min ([4]; blood): 37–67%
- total radioactivity excreted in the feces ([4]; by the end of the 24 h study period / at any time point): no more than 4%
- time of peak concentration ([4]; duodenum digestive matter, both doses): 50 min
- apparent bioavailability ([4]; from fecal excretion, 24 h): up to 96%
- nominal recovered radioactivity of the administered dose in the collected tissues ([4]; high dose (42 μg i.t.)): 83 ± 5%
- exhaled breath, share of the total recovered radioactivity ([4]; intratracheal dosing): 0.07 ± 0.04%
- pulmonary uptake ([4]; intratracheal lung dosing): 99.9 ± 3.5%
- reduction of quantified radioactivity between 12 and 50 min ([4]; kidney): 36–69%
- reduction of quantified radioactivity between 12 and 50 min ([4]; liver): 41–58%
- share of the remaining radioactivity ([4]; liver, high dose): 16.8%
- share of the remaining radioactivity ([4]; liver, low dose): 20.6%
- nominal recovered radioactivity of the administered dose in the collected tissues ([4]; low dose (4.2 μg i.t.)): 74 ± 13%
- reduction of quantified radioactivity between 12 and 50 min ([4]; lung): 56–73%
- share of the remaining radioactivity ([4]; muscle plus liver, high dose): ~52.1%
- share of the remaining radioactivity ([4]; muscle, high dose): 35.3%
- share of the remaining radioactivity ([4]; pulmonary regions, low dose): 16.7%
- more radioactivity retained in serum at the low dose than at the high dose ([4]; serum, same time point): 92%
- time of peak radioactivity ([4]; stomach matter): 50 min
- AUC, high dose compared to low dose ([5]; adipose tissue): 18.7 fold
- C24 ([5]; adipose, high dose (42 μg i.t.)): 385 dpm/mg
- C24 ([5]; adipose, low dose (4.2 μg i.t.)): 63.7 dpm/mg
- C24 ([5]; bladder, high dose (42 μg i.t.)): 8.0 dpm/mg
- C24 ([5]; bladder, low dose (4.2 μg i.t.)): 6.4 dpm/mg
- C24 ([5]; brain, high dose (42 μg i.t.)): 11.0 dpm/mg
- C24 ([5]; brain, low dose (4.2 μg i.t.)): 2.4 dpm/mg
- C24 ([5]; bronchi, high dose (42 μg i.t.)): 205 dpm/mg
- C24 ([5]; bronchi, low dose (4.2 μg i.t.)): 48.6 dpm/mg
- C24 ([5]; esophagus, high dose (42 μg i.t.)): 13.0 dpm/mg
- C24 ([5]; esophagus, low dose (4.2 μg i.t.)): 8.8 dpm/mg
- C24 ([5]; heart, high dose (42 μg i.t.)): 17.0 dpm/mg
- C24 ([5]; heart, low dose (4.2 μg i.t.)): 3.2 dpm/mg
- blood/plasma ratio (blood-to-serum ratio) ([5]; high dose (42 μg i.t.)): 0.89
- C24 ([5]; kidney, high dose (42 μg i.t.)): 23.0 dpm/mg
- C24 ([5]; kidney, low dose (4.2 μg i.t.)): 5.6 dpm/mg
- C24 ([5]; liver, high dose (42 μg i.t.)): 22.0 dpm/mg
- C24 ([5]; liver, low dose (4.2 μg i.t.)): 5.7 dpm/mg
- blood/plasma ratio (blood-to-serum ratio) ([5]; low dose (4.2 μg i.t.)): 0.89
- C24 ([5]; lung, high dose (42 μg i.t.)): 44.0 dpm/mg
- C24 ([5]; lung, low dose (4.2 μg i.t.)): 6.4 dpm/mg
- AUC, high dose compared to low dose ([5]; muscle): 15.7 fold
- C24 ([5]; muscle, high dose (42 μg i.t.)): 10.0 dpm/mg
- C24 ([5]; muscle, low dose (4.2 μg i.t.)): 3.2 dpm/mg
- C24 ([5]; pancreas, high dose (42 μg i.t.)): 93.0 dpm/mg
- C24 ([5]; pancreas, low dose (4.2 μg i.t.)): 29.5 dpm/mg
- AUC, high dose compared to low dose ([5]; prostate): 17.1 fold
- C24 ([5]; prostate, high dose (42 μg i.t.)): 89.0 dpm/mg
- C24 ([5]; prostate, low dose (4.2 μg i.t.)): 15.9 dpm/mg
- serum AUC0–24 h, high dose compared to low dose ([5]; serum): approximately 10 fold
- T1/2 ([5]; serum, high dose (42 μg i.t.), Table 1 prints mean (C–V%) without naming the dose): 12 h
- C24 ([5]; serum, low dose (4.2 μg i.t.)): 0.80 dpm/mg
- AUC, high dose compared to low dose ([5]; skin): 15.1 fold
- C24 ([5]; skin, high dose (42 μg i.t.)): 155 dpm/mg
- C24 ([5]; skin, low dose (4.2 μg i.t.)): 34.2 dpm/mg
- AUC, high dose compared to low dose ([5]; spleen): 16.4 fold
- C24 ([5]; spleen, high dose (42 μg i.t.)): 18.0 dpm/mg
- C24 ([5]; spleen, low dose (4.2 μg i.t.)): 3.2 dpm/mg
- C24 ([5]; testis, high dose (42 μg i.t.)): 6.0 dpm/mg
- C24 ([5]; testis, low dose (4.2 μg i.t.)): 1.6 dpm/mg
- C24 ([5]; thymus, high dose (42 μg i.t.)): 23.0 dpm/mg
- C24 ([5]; thymus, low dose (4.2 μg i.t.)): 4.8 dpm/mg
- C24 ([5]; thyroid, high dose (42 μg i.t.)): 72.0 dpm/mg
- C24 ([5]; thyroid, low dose (4.2 μg i.t.)): 9.6 dpm/mg
- C24 ([5]; trachea, high dose (42 μg i.t.)): 86.0 dpm/mg
- C24 ([5]; trachea, low dose (4.2 μg i.t.)): 21.5 dpm/mg

Reference: paper PMC12593371, “Whole-Body Disposition and Metabolism of [^14C]-2,4,4′-Trichlorobiphenyl (PCB28) Following Lung Administration in Rats” (Environmental Science & Technology, 2025)
